Assay results reported in patent publication US12605455B2, “CAR peptide for improved coronavirus survival” (Vascular Biosciences, priority 2020, dated 2026).
Like-named read-outs stand apart in the source and are kept apart here. Bridge positions count the residues as written; N and C are the ends. Peptide text beside a SMILES is read from it.

Experiments:
[1] = Safety pharmacology and TID 10-day rising-dose and multiple-dose tolerance study of CAR in rats; assay type: in vivo
Irwin test in rats = assay type: in vivo
[2] = Two-month repeat administration of CAR to pigs; assay type: in vivo; conditions: IV 3 mg/kg
[3] = CAR 3 mg/kg i.v. for 14 days
hypertensive lungs = conditions: isolated perfused lung experiments (Toba et al. 2014); cited from earlier work
LPS-induced endotoxemia = test: Survival after LPS-endotoxemia, hydrocortisone with or without CAR; assay type: in vivo, mice; conditions: for survival rate 48 hours after LPS: C57BL/6 male mice, LPS 20 mg/kg IP
Description: 10-week-old C57BL/6 male mice were given an intraperitoneal (IP) injection of Escherichia coli 055:B5 LPS 20 mg/kg. Mice were injected i.p. with 20 mg/kg lipopolysaccharide (LPS). Five different treatments were initiated: saline only group (Untreated, n=31); CAR peptide-alone administration 20 mg/kg ([…]) (CAR alone, n=20); hydrocortisone 0.2 mg/kg or 10 mg/kg Low-HCT or High-HCT, n=20, 28 respectively); and CAR 20 mg/kg co-administered with hydrocortisone 0.2 mg/kg (Low HCT+CAR, n=20). Hydrocortisone and/or CAR peptide were injected intraperitoneally at 3, 12 and 24 hours after LPS administration.

[4] = tested on: endothelium and endothelial glycocalyx of kidney, lung and liver; test: Ultrastructural analysis (scanning electron microscopy) of endothelium and endothelial glycocalyx after LPS; assay type: in vivo; conditions: mice 48 hours after LPS; hydrocortisone 0.2 mg/kg with or without CAR
Description: Capillaries of the kidney are fenestrated capillaries which have small holes at endothelial cells. The destruction of this structure was 48 hours after LPS injection. Then, the endothelial wall became edematous and there was deposited fibrin on it. Capillaries of the lung are continuous type of capillaries. Although the vascular endothelium of the lung is thinner at the edges of the nucleus, edema occurred and vascular endothelial structure was impaired 48 hours after LPS injection. Capillaries of the liver are sinusoids which have a lot of large […] gap in normal capillaries. 48 hours after LPS administration, these structures have already broken the edematous of the vascular endothelium and deposited fibrin.
The endothelial glycocalyx (GCX) of the apical endothelial surface of each organ can by visualized using scanning electron microscopy (SEM) to assess GCX appearance and structure. GCX was largely denuded in the untreated sepsis group but the GXX damage was attenuated when CAR is co-administered with low-HCT.
Mice were sacrificed at 48 hours after LPS administration, and kidney, lung and liver were obtained to create frozen fracture freeze-dried samples to detect endothelial changes with electron microscopy. The specimens were examined under a scanning electron microscope (S-4500, Hitachi). […]

CLP sepsis = test: Cecal ligation and puncture (2CLP) rat model of sepsis, hydrocortisone with or without CAR; assay type: in vivo, rats
Description: At 40 hours, 4 of the 5 rats in the HCT+CAR group survived while none of the rats in either the HCT group nor the sepsis group survived for 40 hours (n=5 in each group) (Log-rank P=0.008).
8-10 week-old male Sprague Dawley rats were exposed to CLP. Rats were randomized (n=5/group) to saline, hydrocortisone (0.2 mg/kg IV), or CAR (3 mg/kg IV)+HCT. Treatments were initiated 12 hours after surgery, and given every 12 hours afterwards until death, for a maximum of 5 days. Rats were treated with fluid resuscitation but not with antibiotics in this model. Survival was highest in the CAR+HCT group (FIG. 6) (Log-rank P=0.008) and the median Ang2/Ang1 ratio was lower in CAR+HCT than the hydrocortisone group (0.60 vs 1.69, p=0.06).

SARS-CoV2 [5] = assay type: in vivo, K18-hACE2 transgenic mice; conditions: hydrocortisone 0.2 mg/kg ip every 6 hours, alone or with CAR 8 mg/kg ip
SARS-CoV2 [6] = assay type: in vivo, K18-hACE2 transgenic mice; conditions: HCT 0.2 mg/kg/dose via IT installation every 24 hours: free, liposome encapsulated or CAR-liposome encapsulated
SARS-CoV2 [7] = assay type: in vivo, K18-hACE2 transgenic mice; conditions: HCT 0.2 mg/kg/dose iv every 12 hours: free, liposome encapsulated or CAR-liposome
LPS model of sepsis = test: LPS model of sepsis, survival with sivelestat with or without CAR; assay type: in vivo
Source text: (§1) Thus, CAR could potentially adjuvant efficacy of other drugs against viral sepsis, including CAR in combination with sivelstat, as shown at lung (FIG. 9), liver (FIG. 10) and kidney (FIG. 11) samples.

[8] = tested on: endothelium of lung, liver and kidney; test: Scanning electron micrographs of lung, liver and kidney, sivelestat with or without CAR in septic animals; assay type: in vivo
Source text: Scanning electron micrographs of lung tissue from control, sivelestat alone, and CAR+sivelestat treated animals. The pulmonary vasculature is shown in the enlargement.
Scanning electron micrographs of liver tissue from control, sivelestat alone, and CAR+sivelestat treated animals. The fenestrated sinusoidal endothelium with clusters of fenestrations, or ‘sieve plates,’ are visible in the control liver vasculature.
Scanning electron micrographs of kidney tissue from control, sivelestat alone, and CAR+sivelestat treated animals. In the enlargement shown of the […] vasculature, the fenestrated glomerular endothelium surrounded by podocyte foot processes (red arrow). […] This is presumably due to activation of neutrophil elastase which leads to proteolytic degradation of critical extracellular matrix proteins. […] The activity of sivelestat's anti-elastase appears to be efficiently boosted by CAR's selective homing to the injured endothelial glycocalyx in the kidney.
as §1

[9] = sivelestat 0.5 mg/kg or sivelestat 0.5 mg/kg + CAR

With `C[C@@H]1NC(=O)[C@@H](N)CSSC[C@@H](C(=O)O)NC(=O)[C@H](CC(=O)O)NC(=O)[C@H](CCCCN)NC(=O)[C@H](CC(N)=O)NC(=O)[C@H](CCCCN)NC(=O)[C@H](CO)NC(=O)[C@H](CCCNC(=N)N)NC1=O` [CAR, CARSKNKDC] (H-CARSKNKDC-OH; disulfide 1-9; N-terminus and C-terminus assumed) as the compound, how does the “mortality, clinical observations, hematology, coagulation, clinical chemistry” value ([1]; TID 10-day rising-dose and multiple-dose, up to highest dose 20 mg/kg IV) read?
The value was “no mortality, adverse clinical observations, and no aberrations in hematology, coagulation or clinical chemistry”.

What about the “adverse effects on vital physiological systems (safety pharmacology)” value ([1]; up to the highest levels of CAR tested) of the same compound?
Its value is “no adverse effects”.

What about the “adverse effects on behavior and physiological function” value (Irwin test in rats) of the same compound?
The value was “no adverse effects”.

What about the “immunological effects or signs of toxicity” value [2] of the same compound?
Its value is “no immunological effects or signs of toxicity”.

And the Creatinine ([3]; healthy adult Sprague-Dawley rats)?
Its Creatinine is 0.45 ± 0.02 mg/dL.

What about the ALP ([3]; healthy rats) of the same compound?
Its ALP is 170 ± 18 U/L.

What about the AST ([3]; healthy rats) of the same compound?
The AST was 141 ± 31 U/L.

And the BUN ([3]; healthy rats)?
Its BUN is 17 ± 1 mg/dL.

What about the Glucose ([3]; healthy rats) of the same compound?
Its Glucose is 213 ± 5.

What about the Hb ([3]; healthy rats) of the same compound?
The Hb was 12.8 ± 0.2 g/dL.

And the Tbili ([3]; healthy rats)?
The Tbili was 0.10 ± 0.04 mg/dL.

And the Wbc ([3]; healthy rats)?
The Wbc was 4.0 ± 0.7 ×1000/μL.

And the “impact on blood renal function, hepatic function, hematologic tests and glucose hemostasis” value ([3]; healthy rats)?
The value was “no impact”.

And the “concentration of the co-administered drug in the diseased lung” value (hypertensive lungs)?
Its value is “doubling”.

For `C[C@]12CCC(=O)C=C1CC[C@@H]1[C@@H]2[C@@H](O)C[C@@]2(C)[C@H]1CC[C@]2(O)C(=O)CO` [HCT, hydrocortisone], which “survival rate 48 hours after LPS” value (LPS-induced endotoxemia; hydrocortisone 0.2 mg/kg alone or with CAR 20 mg/kg, IP at 3, 12 and 24 hours) is on record?
Its value is 30%.

And the “survival rate 48 hours after LPS” value (LPS-induced endotoxemia; hydrocortisone 10 mg/kg (High-HCT) IP at 3, 12 and 24 hours)?
Its value is 57%.

And the “survival difference versus untreated sepsis 48 hours after LPS” value (LPS-induced endotoxemia; CAR alone 20 mg/kg, hydrocortisone 0.2 mg/kg (Low-HCT))?
Its value is “no significant survival difference”.

What about the “endothelial ultrastructure of kidney, lung and liver capillaries” value [4] of the same compound?
Its value is “no beneficial effect for septic endothelial disorders”.

And the “rats surviving at 40 hours” value (CLP sepsis; 2CLP rats, n=5 in each group, hydrocortisone 0.2 mg/kg IV with or without CAR 3 mg/kg IV every 12 hours from 12 hours after surgery)?
Its value is “none”.

What about the hyperglycemia (CLP sepsis; CLP rats) of the same compound?
The hyperglycemia was “hyperglycemia observed”.

What about the “median Ang2/Ang1 ratio” value (CLP sepsis; CLP rats, p=0.06) of the same compound?
The value was 1.69.

And the “survival at 7 dpi” value (SARS-CoV2 [5])?
Its value is “some improvements in survival”.

And the “survival at 7 dpi” value (SARS-CoV2 [6])?
The value was “some improvements in survival”.

And the “survival at 7 dpi” value (SARS-CoV2 [7])?
Its value is “some improvements in survival”.

For `CC(C)(C)C(=O)Oc1ccc(S(=O)(=O)Nc2ccccc2C(=O)NCC(=O)O)cc1` [Sivelestat, sivelestat], which “Survival Rate (%) 12 h” value (LPS model of sepsis; sivelestat 0.5 mg/kg (n=20) or sivelestat 0.5 mg/kg + CAR (n=18)) is on record?
Its value is 100%.

And the “Survival Rate (%) 24 h” value (LPS model of sepsis; [9])?
Its value is 85%.

What about the “Survival Rate (%) 36 h” value (LPS model of sepsis; [9]) of the same compound?
Its value is 60%.

And the “Survival Rate (%) 48 h” value (LPS model of sepsis; [9])?
Its value is 50%.

What about the “glomerular endothelium fenestrations, SEM kidney images” value [8] of the same compound?
The value was “fenestrations are absent and gross tissue damage is apparent”.

What about the “liver sinusoidal endothelium sieve plates, SEM liver images” value [8] of the same compound?
The value was “not able to prevent defenestration of sieve plates”.

What about the “pulmonary arteriole endothelium, SEM lung images” value [8] of the same compound?
The value was “did not prevent degradation of the continuous pulmonary arteriole endothelium”.
